The record followed here is PubChem BioAssay AID1645868 (Buhrlage Lab, Dana-Farber Cancer Institute and Novartis …, 2021).

This assay concerns the target OTU domain-containing protein 3 (Homo sapiens) (UniProt Q5T2D3). Description: Validation of screening hits, potency titration, in vitro enzymatic, OTU domain-containing protein 3 DUB inhibitors (AID 1645868). The note with it: purified OTUD3, ubiquitin-rhodamine cleavage fluorescence, 2 h.

Activity calls are given as the source filed them.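 Rule for the calls: active = maximal percent inhibition of the deubiquitinase OTUD3 of at least 30% across the tested doses; inactive = the rest.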 Bounds are passed on as bounds.

Chain of OTU domain-containing protein 3 (Homo sapiens) (Q5T2D3 whole entry, looked up, the tested form may be a part): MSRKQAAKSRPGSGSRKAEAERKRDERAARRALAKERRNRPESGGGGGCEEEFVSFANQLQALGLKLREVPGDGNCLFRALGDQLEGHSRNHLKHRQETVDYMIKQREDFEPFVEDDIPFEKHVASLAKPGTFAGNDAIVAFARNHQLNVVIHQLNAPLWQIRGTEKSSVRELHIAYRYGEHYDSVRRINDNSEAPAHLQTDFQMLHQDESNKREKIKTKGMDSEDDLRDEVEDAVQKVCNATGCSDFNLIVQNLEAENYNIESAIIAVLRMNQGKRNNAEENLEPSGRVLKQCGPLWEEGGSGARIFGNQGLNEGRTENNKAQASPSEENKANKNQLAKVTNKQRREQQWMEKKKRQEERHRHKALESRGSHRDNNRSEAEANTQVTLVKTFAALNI

Regarding `O=C(Nc1cccc2ccccc12)C1CCCN(S(=O)(=O)Cc2ccccc2)C1` (stereo not drawn), the IC50 was 40.5 µM.

Regarding `O=C(CC1C(=O)N(Cc2ccccc2)c2nc3ccccc3n21)NCCc1ccccc1` (stereo not drawn), the IC50 was 19.7 µM.

Regarding `Cc1ccc(NC(=O)c2sc3ncn(CC(=O)N4CCN(c5ccccn5)CC4)c(=O)c3c2C)c(Br)c1`, the IC50 was 37.9 µM.

Regarding `O=C(NCc1ccc2c(c1)OCO2)c1[nH]nc2c1COc1ccccc1-2`, the IC50 is 24.8 µM.

`COc1cccc2c1OCC(C(=O)NCc1ccc(F)cc1)=C2`: the IC50 was > 50 µM (inactive).

Consider `FC(F)(F)c1cccc(CSc2ccc3nnc(-c4ccccn4)n3n2)c1`, for which the IC50 was > 50 µM (inactive).

For the molecule `Cc1cc(Cl)ccc1Nc1nc(Nc2cccc(F)c2)nc2nccnc12`, the IC50 was > 50 µM (inactive).

As for `CC(C(=O)NCc1ccc(F)cc1)n1cccc1C(=O)c1ccccc1` (stereo not drawn), the IC50 was > 50 µM (inactive).

In the case of `O=C(Nc1ccc(F)cc1F)c1csc(-c2ccccc2)n1`, the IC50 was 34.7 µM.

On to `Cn1nc(-c2ccccc2)c(COC(=O)c2ccc([N+](=O)[O-])cc2)c1Cl`, for which the IC50 was > 50 µM (inactive).

In the case of `COc1ccc(/C=C/C(=O)Nc2cccc(S(=O)(=O)Nc3ccccc3Cl)c2)c(OC)c1`, the IC50 was 25.5 µM.

In the case of `Cc1ccc(-n2nc(C)c3c2NC(=O)CC3C(=O)c2cc3ccccc3o2)cc1C` (stereo not drawn), the IC50 was > 50 µM (inactive).

Turning to `Cc1oc(-c2ccc(C(=O)NCC3COCCO3)cc2)nc1CN1CCc2ccccc21` (stereo not drawn), the IC50 was > 50 µM (inactive).

Turning to `Cc1ccc(-c2ccc(N3CCOCC3)nn2)cc1S(=O)(=O)N1CCOCC1`, the IC50 is > 50 µM (inactive).

Regarding `Cc1cc(N2CCOCC2)nc2ccc(NC(=O)CCC(=O)Nc3ccc(F)cc3)cc12`, the IC50 is > 50 µM (inactive).

Turning to `Cc1ccc(C(=O)NCc2ccc(C(=O)Nc3cccc(C)c3)o2)cc1`, the IC50 was > 50 µM (inactive).

For `Cc1ccc2c(c1)N(C)C(=O)c1cc(NC(=O)c3ccc(F)cc3)ccc1O2`, the IC50 is 22.5 µM.

On to `COc1ccc(S(=O)(=O)N2CCN3Cc4ccccc4N(C)CC3C2)cc1` (stereo not drawn), for which the IC50 was > 50 µM (inactive).

For the molecule `O=c1c(OC2O[C@H](CO)[C@H](O)[C@H](O)[C@H]2O)c(-c2ccc(O)cc2)oc2cc(O)cc(O)c12` (stereo partly drawn), the IC50 was 49.9 µM.

`O=C1c2c(O)cccc2C2(Oc3cccc4cccc(c34)O2)C2OC12` (stereo not drawn): the half-maximal inhibitory concentration (IC50) is 22.5 µM.

With `CC(CCc1ccccc1)NC(=O)C(=O)c1cn(CC(=O)N2CCOCC2)c2ccccc12` (stereo not drawn), the IC50 was > 50 µM (inactive).

In the case of `CCOC(=O)c1cc2c(ccn2C)n1CC(=O)N1CCc2ccccc2C1`, the IC50 was > 50 µM (inactive).

Turning to `CC(C)c1ccc(C(C(=O)NC2CCCCC2)N(C(=O)c2cnccn2)c2cccc(F)c2)cc1` (stereo not drawn), the IC50 was 47.6 µM.

Consider `COc1ccc(-c2cc(C(F)F)n3ncc(C(=O)Nc4ccc5c(c4)OCCO5)c3n2)cc1`, for which the IC50 is > 50 µM (inactive).

On to `Cc1ccccc1-c1nnc(-c2ccc(C(=O)NCc3ccccc3F)cc2)o1`, for which the IC50 was 31.6 µM.

As to `CC(=O)c1sc(NC(=O)c2ccccc2-c2ccc(C(F)(F)F)cc2)nc1C`, the IC50 is 41.7 µM.

For the molecule `COc1c(Cl)ccc2c(=O)c3c(O)c4c5c(c3oc12)OCO[C@H]5[C@@H](OC)c1cc2c(c(O)c1-4)C(=O)N(C)[C@H](OC)[C@@H]2O`, the IC50 is > 50 µM (inactive).

Take `COc1ccc(/C=C/C(=O)N2CCc3ccccc32)cc1S(=O)(=O)N1CCOCC1`: the IC50 is > 50 µM (inactive).

Turning to `Cc1cc(C)c2sc(N(CCCn3ccnc3)C(=O)Cc3ccccc3)nc2c1`, the IC50 is 24 µM.

`Cc1[nH]nc(NC(=O)C2COc3ccccc3O2)c1-c1ccccc1` (stereo not drawn): the IC50 is 26.6 µM.

For the molecule `CC1OC(CC(=O)O)CC23OC12C(=O)c1c(O)cccc1C3=O` (stereo not drawn), the IC50 was > 50 µM (inactive).

In the case of `O=C(NCc1ccc2c(c1)OCO2)c1ccc(C2SCC(=O)N2Cc2ccco2)cc1` (stereo not drawn), the IC50 was > 50 µM (inactive).

For the molecule `COc1ccc(-c2cc(-c3ccccc3)nc(SCC(N)=O)c2C#N)cc1OC`, the IC50 was 10.5 µM.

On to `Cn1ccnc1CN1C[C@H]2CCN(c3ncccn3)C[C@H]2C1`, for which the IC50 is > 50 µM (inactive).

In the case of `Cc1ccc(C)c(Nc2cc(C)nc3nc(-c4ccco4)nn23)c1`, the IC50 was > 50 µM (inactive).

Turning to `Cc1nc2ccc(NC(=O)COc3ccccc3[N+](=O)[O-])cc2s1`, the IC50 was 19.9 µM.

For `COc1ccc(CCNC(=O)[C@H](CCSC)NC(=O)N2CCn3c2nc2ccccc23)cc1OC`, the IC50 was > 50 µM (inactive).

As for `CCCc1nc2sc3c(NCc4ccco4)ncnc3c2c2c1CCC2`, the IC50 was > 50 µM (inactive).

Regarding `CCC(=O)Nc1nc2cc(NC(=O)Nc3cc(C)cc(C)c3)ccc2s1`, the IC50 was 7.84 µM.

As to `CC(NC(=O)c1ccccc1)c1nc2ccccc2n1CC(=O)Nc1ccc2c(c1)OCO2` (stereo not drawn), the IC50 was 3.53 µM.

As for `O=C1N[C@@H](Cc2ccccc2)C(=O)N2[C@H]3Nc4ccccc4[C@@]3([C@]34C[C@H]5C(=O)N[C@@H](Cc6ccccc6)C(=O)N5[C@H]3Nc3ccccc34)C[C@@H]12`, the IC50 is 47.6 µM.

Turning to `O=C(COc1nsnc1N1CCOCC1)Nc1ccccc1F`, the IC50 is > 50 µM (inactive).

Regarding `O=C(NCc1ccccc1Cl)C1CCCN(c2nc3ccsc3c(=O)s2)C1` (stereo not drawn), the IC50 was > 50 µM (inactive).

With `COc1ccc(-n2nnc(C(=O)Nc3ccccc3)c2N)cc1`, the IC50 was > 50 µM (inactive).

Turning to `FC(F)(F)c1cccc(N2CCN(c3nc4ccccc4n4nnnc34)CC2)c1`, the IC50 is > 50 µM (inactive).

As for `COc1ccc(NC(=O)CSc2nnc(Cc3cccc4ccccc34)n2C)cc1`, the IC50 was > 50 µM (inactive).

As for `O=C(Oc1ccc(-c2cnc3ccccc3n2)cc1)c1ccc(F)cc1`, the IC50 was > 50 µM (inactive).

Consider `O=C(CC1C(=O)Nc2nc(-c3ccccc3)nn21)Nc1cccc2ccccc12` (stereo not drawn), for which the IC50 was 25 µM.

With `Cc1ccc(S(=O)(=O)N2CCC3(CC2)NC(=O)c2ccccc2N3)cc1C`, the IC50 is > 50 µM (inactive).

Take `CC(=O)c1ccc(Cc2ncc(C(F)(F)F)cc2Cl)s1`: the IC50 was > 50 µM (inactive).

With `CSc1cccc(NC(=O)CNC(=O)c2cc3ccccc3o2)c1`, the IC50 was > 50 µM (inactive).

Take `CC(C)CCCCCCCCCCC(=O)N(C)[C@H](CO)C(=O)N[C@H](C)C(=O)NCC(=O)N(C)C1C(=O)N[C@@H](C)C(=O)NC(C(=O)O)Cc2ccc(O)c(c2)-c2cc1ccc2O` (stereo partly drawn): the IC50 was > 50 µM (inactive).

`CC(=O)c1cc2c(=O)c3c(C(=O)O)c(O)c(O)cc3oc2c(C(C)=O)c1-c1coc2cc(O)c(O)c(C(=O)O)c2c1=O`: the IC50 is 0.369 µM.

Take `COC(=O)c1cc(C)sc1NC(=O)c1cccc(OC)c1OC`: the IC50 was > 50 µM (inactive).

Regarding `COc1ccc(CNC(=O)CCc2nnc3n(Cc4ccccc4Cl)c(=O)c4ccccc4n23)cc1`, the IC50 is 13.1 µM.

In the case of `Cc1ccc2cc3c(nc2n1)CCN(Cc1ccc(F)cc1)C3`, the IC50 is > 50 µM (inactive).

On to `CC1OC2CC(O)C1(O)C1=C2C(=O)c2c(O)c3c(c(O)c2C1=O)[C@H](C)O[C@H]1CC(=O)O[C@@H]31` (stereo partly drawn), for which the IC50 was > 50 µM (inactive).

Consider `CCC/C=C\C#CC/C=C\CCCCCCCC(=O)O`, for which the IC50 was 1.37 µM.

Regarding `CCN(CC)c1nc(F)c2c(c1F)S(=O)(=O)CCN2Cc1cccnc1`, the IC50 was > 50 µM (inactive).

Take `COc1cccc(-n2nnc(C(=O)Nc3ccc(C)c(C)c3)c2C)c1`: the IC50 was > 50 µM (inactive).

Turning to `CCC(=O)Nc1ccccc1-c1nc2ccccc2n(CC(=O)Nc2cc(OC)ccc2OC)c1=O`, the IC50 was 19 µM.

Turning to `O=C(Cn1nnc(-c2ccc(F)cc2)n1)NCCc1ccccc1`, the IC50 is > 50 µM (inactive).

Regarding `Clc1cncc(Oc2nc(-c3cccnc3)nc3ccccc23)c1`, the IC50 was > 50 µM (inactive).

Consider `Cc1c(-c2nsc(NC(=O)c3ccc(Cl)cc3)n2)nnn1-c1ccccc1F`, for which the IC50 is 18.9 µM.

On to `COCCCn1c(C(=O)NCCc2ccccc2)cc2c(=O)n3cccc(C)c3nc21`, for which the IC50 is > 50 µM (inactive).

With `Cc1ccc2c(=O)c(C(=O)Nc3ccccc3)cn(CC(=O)NC3CCCCC3)c2n1`, the IC50 is > 50 µM (inactive).

As for `COc1ccc(/C=C/c2ccnc3nc(-n4cccc4)nn23)cc1`, the IC50 is > 50 µM (inactive).

As to `O=C1NC(=O)/C(=C/c2ccc(OC(=O)c3ccc(Cl)cc3Cl)cc2)N1`, the IC50 was 11 µM.

Take `Cc1ccc2c(c1)c(=O)c(C(=O)c1ccccc1)cn2CC(=O)Nc1ccccc1`: the IC50 was 31.5 µM.

For `COc1cccc(C(=O)Nc2ccc(-n3cnnn3)cc2)c1`, the IC50 is > 50 µM (inactive).

As for `Cc1cc(C)cc(NC(=O)CSc2ccc(-c3ccncc3)nn2)c1`, the IC50 was > 50 µM (inactive).

Take `COc1ccc(-n2ccn3c(CCC(=O)NCc4ccc(F)cc4)nnc3c2=O)cc1`: the IC50 was 33.3 µM.

As to `COC(=O)c1ccc(Cn2cnc3ccc(F)cc3c2=O)o1`, the IC50 is > 50 µM (inactive).

As for `CCOc1ccc2[nH]c3c(=O)n(CCc4ccc(OC)cc4)cnc3c2c1`, the IC50 was 28.6 µM.

Regarding `O=C(CNC(=O)c1cc2ccccc2o1)Nc1ccc2c(c1)OCCO2`, the IC50 was 33.8 µM.

Consider `COCCCN1CCS(=O)(=O)c2c(Cl)c(F)nc(Oc3ccc(C#N)cc3)c21`, for which the IC50 was > 50 µM (inactive).

In the case of `COc1ccc(-c2nc(SCC(=O)Nc3ccc(C(C)=O)cc3)n[nH]2)cc1`, the IC50 is 18.3 µM.

On to `O=C(CCc1ccccc1)N(CC1CCCO1)c1nc2ccccc2s1` (stereo not drawn), for which the IC50 is > 50 µM (inactive).

With `CSc1cccc(C(=O)Nc2ccc(-c3nc4ccccc4[nH]3)cc2)c1`, the IC50 was 21.7 µM.

Turning to `Cc1ccc(-c2nc(N3CCCC(O)C3)ncc2-c2cnccn2)s1` (stereo not drawn), the IC50 was > 50 µM (inactive).

Turning to `CN(C)S(=O)(=O)N1CCCC2(C1)Nc1cccnc1NC2=NC1CCCC1` (stereo not drawn), the IC50 was > 50 µM (inactive).

`C=C1CCC2[C@](C)(CCC[C@]2(C)C(=O)OC)[C@H]1CCc1ccoc1CNC(C)C` (stereo partly drawn): the IC50 is > 50 µM (inactive).

Take `O=C(Nc1ccccc1)c1cn(-c2cc(N3CCCC3)ncn2)cn1`: the IC50 was > 50 µM (inactive).

By IC50 is commonly meant the concentration that gives 50% inhibition.
